Literature values in patent US8133524B1, “Food composition for hemophagous insects” (Tokitae LLC, priority 2010, dated 2012).
“Also recorded” adds a separate entry of the source.

Test system: Aedes aegypti mosquitoes
Conditions: mosquitoes fed with human red blood cells or blood

For CC[C@H](C)[C@H](N)C(=O)O [isoleucine], the “effect of isoleucine supplementation on egg production / egg-laying” value is given as “enhanced egg production rate; also recorded: enhanced egg-laying after blood feeding”.
